One assay concerns the target PI3 Kinase. Put plainly: PI3K fluorescence polarization assay. It is filed as biochemical. Particulars: 25 μM ATP, diC8-PI(4,5)P2 substrate, 1 hour at 25° C.; read-out: PI3 Kinase Median IC50. In general terms: Fluorescence polarisation rises when a labelled molecule tumbles more slowly, as on binding a larger partner.
A further assay addresses T1, human TOR (Homo sapiens, UniProt P42345).
T1 construct: FLAG
Put plainly: mTOR enzyme assay (DELFIA format, purified FLAG-TOR, His6-S6K substrate). It counts as biochemical. Particulars: 100 μM ATP, 1.25 μM His6-S6K, 2 hours at room temperature; read-out: TOR Kinase Median IC50.

Procedure for PI3 Kinase: Nunc 384 well black polypropylene fluorescent plates are used for PI3K assays. Reactions are quenched by the addition of EDTA to a final concentration of 10 mM. Final reaction volumes are 10 μl. […] Reactions are allowed to proceed for one hour at 25° C. After 1 hour, GST-tagged GRP1 (general receptor for phosphoinositides) PH domain fusion protein is added to a final concentration of 100 nM, and BODIPY-TMRI(1,3,4,5)P4 (Echelon) is also added to a final concentration of 5 nM. Final sample volumes are 25 μl with a final DMSO concentration of 0.8%. Assay Plates are read on Perkin-Elmer Envision plate readers with appropriate filters for Tamra [BODIPY-TMRI(1,3,4,5)P4].

Usually IC50 stands for the concentration at which inhibition is half-maximal. `OCc1cccc(-c2nc(N3CCOCC3)c3ncn(C4CCNCC4)c3n2)c1` [Compound 25, [3-(6-Morpholin-4-yl-9-piperidin-4-yl-9H-purin-2-yl)-phenyl]-methanol]: the IC50 on PI3 Kinase is 57 nM; at human TOR, 7200 nM.

For the compound `OCc1cccc(-c2nc(N3CCOCC3)c3ncn(CC4CCN(Cc5ccccc5)CC4)c3n2)c1` [Compound 29, (3-(9-((1-benzylpiperidin-4-yl)methyl)-6-morpholino-9H-purin-2-yl)phenyl)methanol], the IC50 at PI3 Kinase amounted to 243 nM; on human TOR it was 10500 nM.

As to `Oc1cccc(-c2nc(N3CCOCC3)c3ncn(C4CCN(Cc5ccc(N6CCOCC6)nc5)CC4)c3n2)c1` [Compound 82, 3-(6-morpholin-4-yl-9-{1-[(6-morpholin-4-ylpyridin-3-yl)methyl]piperidin-4-yl}-9H-purin-2-yl)phenol], the IC50 on PI3 Kinase was 55 nM; on human TOR, 145 nM.

Regarding `Oc1cccc(-c2nc(N3CCCCC3)c3nc[nH]c3n2)c1` [Compound 21, 3-(6-Piperidin-1-yl-9H-purin-2-yl)-phenol], the IC50 on PI3 Kinase amounted to 4300 nM.

For the compound `OCc1cccc(-c2nc(N3CCOCC3)c3ncn(C4CCN(Cc5ccccc5)CC4)c3n2)c1` [Compound 33, {3-[9-(1-benzylpiperidin-4-yl)-6-morpholin-4-yl-9H-purin-2-yl]phenyl}methanol], the IC50 on human TOR was determined as 700 nM.

Take `Oc1cccc(-c2nc(N3CCOCC3)c3ncn(C4CCN(Cc5ccc(Cl)nc5)CC4)c3n2)c1` [Compound 78, 3-(9-{1-[(6-chloropyridin-3-yl)methyl]piperidin-4-yl}-6-morpholin-4-yl-9H-purin-2-yl)phenol]: the results for the IC50 at PI3 Kinase and at human TOR were 37 nM and 200 nM, respectively.

For `OCc1cccc(-c2nc(N3CCOCC3)c3ncn(C4CCN(Cc5ncc[nH]5)CC4)c3n2)c1` [Compound 70, (3-{9-[1-(1H-imidazol-2-ylmethyl)piperidin-4-yl]-6-morpholin-4-yl-9H-purin-2-yl}phenyl)methanol], the IC50 was 152 nM on PI3 Kinase and 1500 nM on human TOR.

For `COc1ccc(CN2CCC(n3cnc4c(N5CCOCC5)nc(-c5cccc(O)c5)nc43)CC2)cn1` [Compound 79, 3-(9-{1-[(6-methoxypyridin-3-yl)methyl]piperidin-4-yl}-6-morpholin-4-yl-9H-purin-2-yl)phenol], the IC50 at PI3 Kinase is 55 nM; on human TOR it was 51 nM.

Turning to `Oc1cncc(-c2nc(N3CCOCC3)c3ncn(C4CCN(Cc5ccc(F)nc5)CC4)c3n2)c1` [Compound 88, 5-(9-{1-[(6-fluoropyridin-3-yl)methyl]piperidin-4-yl}-6-morpholin-4-yl-9H-purin-2-yl)pyridin-3-ol], the 50% inhibitory concentration (IC50) at PI3 Kinase was 85 nM; at human TOR, 500 nM.

With `Oc1cccc(-c2nc(N3CCOCC3)c3ncn(CC4CCN(Cc5ccccc5)CC4)c3n2)c1` [Compound 27, 3-(9-((1-benzylpiperidin-4-yl)methyl)-6-morpholino-9H-purin-2-yl)phenol], the IC50 at PI3 Kinase is 193 nM; at human TOR it was 600 nM.

As for `Cc1ccc(CN2CCC(n3cnc4c(N5CCOCC5)nc(-c5cncc(O)c5)nc43)CC2)cc1` [Compound 40, 5-{9-[1-(4-methylbenzyl)piperidin-4-yl]-6-morpholin-4-yl-9H-purin-2-yl}pyridin-3-ol], the IC50 on human TOR is 590 nM.

Consider `CNC(=O)Nc1ccc(-c2nc(N3CCOCC3)c3ncn(C4CCN(Cc5cccnc5)CC4)c3n2)cc1` [Compound 89, 1-methyl-3-(4-(6-morpholino-9-(1-(pyridin-3-ylmethyl)piperidin-4-yl)-9H-purin-2-yl)phenyl)urea], for which the IC50 at PI3 Kinase was determined as 340 nM; at human TOR, 9.7 nM.

`Cc1ccc(CN2CCC(n3cnc4c(N5CCOCC5)nc(-c5cccc(CO)c5)nc43)CC2)s1` [Compound 67, [3-(9-{1-[(5-methyl-2-thienyl)methyl]piperidin-4-yl}-6-morpholin-4-yl-9H-purin-2-yl)phenyl]methanol]: the IC50 was 518 nM at PI3 Kinase and more than 4000 nM at human TOR.

`CN(C)CCCOc1ccc(CN2CCC(n3cnc4c(N5CCOCC5)nc(-c5cccc(CO)c5)nc43)CC2)cc1` [Compound 75]: the IC50 at PI3 Kinase is 16 nM; on human TOR, more than 4000 nM.

Consider `OCc1cccc(-c2nc(N3CCOCC3)c3ncn(C4CCN(Cc5cnc6n5CCOC6)CC4)c3n2)c1` [Compound 74, (3-{9-[1-(5,6-dihydro-8H-imidazo[2,1-c][1,4]oxazin-3-ylmethyl)piperidin-4-yl]-6-morpholin-4-yl-9H-purin-2-yl}phenyl)methanol], for which the IC50 came out at 94 nM at PI3 Kinase and 2000 nM on human TOR.

Consider `COc1cncc(-c2nc(N3CCOCC3)c3nc[nH]c3n2)c1` [Compound 42, 2-(5-methoxypyridin-3-yl)-6-morpholin-4-yl-9H-purine], for which the IC50 at PI3 Kinase turned out to be 598 nM; at human TOR, 3000 nM.

With `OCc1cccc(-c2nc(N3CCOCC3)c3ncn(C4CCN(Cc5ccc(F)cc5Cl)CC4)c3n2)c1` [Compound 69, (3-{9-[1-(2-chloro-4-fluorobenzyl)piperidin-4-yl]-6-morpholin-4-yl-9H-purin-2-yl}phenyl)methanol], the values for the IC50 on PI3 Kinase and on human TOR were 77 nM and 1550 nM, respectively.

Turning to `CCCCN1CCC(n2cnc3c(N4CCOCC4)nc(-c4cccc(CO)c4)nc32)CC1` [Compound 48], the figures for the IC50 on PI3 Kinase and at human TOR were 96 nM and 4200 nM, respectively.

For the compound `OCc1cccc(-c2nc(N3CCOCC3)c3ncn(C4CCN(Cc5ccc(-c6ccncc6)cc5)CC4)c3n2)c1` [Compound 47, (3-{6-morpholin-4-yl-9-[1-(4-pyridin-4-ylbenzyl)piperidin-4-yl]-9H-purin-2-yl}phenyl)methanol], the IC50 at human TOR was 720 nM.

As to `Oc1cccc(-c2nc(N3CCOCC3)c3ncn(C4CCN(Cc5ccc(Br)nc5)CC4)c3n2)c1` [Compound 81, 3-(9-{1-[(6-bromopyridin-3-yl)methyl]piperidin-4-yl}-6-morpholin-4-yl-9H-purin-2-yl)phenol], the IC50 at human TOR turned out to be 120 nM.

As to `COc1cccc(-c2nc(N3CCOCC3)c3nc[nH]c3n2)c1` [Compound 53, 4-(2-(3-methoxyphenyl)-9H-purin-6-yl)morpholine], the IC50 at human TOR is more than 20000 nM.

Turning to `c1ccc(-c2cccc(-c3nc(N4CCOCC4)c4nc[nH]c4n3)c2)cc1` [Compound 14, 2-biphenyl-3-yl-6-morpholin-4-yl-9H-purine], at PI3 Kinase, the half-inhibitory concentration (IC50) worked out at 4440 nM.

`O=[N+]([O-])c1cccc(-c2nc(N3CCOCC3)c3nc[nH]c3n2)c1` [Compound 8, 6-morpholin-4-yl-2-(3-nitrophenyl)-9H-purine]: the IC50 at PI3 Kinase was 8900 nM.

On to `FC(F)(F)c1cccc(-c2nc(N3CCOCC3)c3nc[nH]c3n2)c1` [Compound 10, 6-morpholin-4-yl-2-[3-(trifluoromethyl)phenyl]-9H-purine], for which the IC50 on PI3 Kinase was found to be 5710 nM.

As for `Oc1cccc(-c2nc(N3CCOCC3)c3ncn(C4CCN(Cc5cccnc5)CC4)c3n2)c1` [Compound 76, 3-{6-morpholin-4-yl-9-[1-(pyridin-3-ylmethyl)piperidin-4-yl]-9H-purin-2-yl}phenol], the concentration for half-maximal inhibition (IC50) at human TOR turned out to be 170 nM.

For the compound `Cc1cccc(-c2nc(N3CCOCC3)c3nc[nH]c3n2)c1` [Compound 11, 2-(3-methylphenyl)-6-morpholin-4-yl-9H-purine], the IC50 on PI3 Kinase came out at 4210 nM.

For `Oc1ccccc1-c1nc(N2CCOCC2)c2nc[nH]c2n1` [Compound 3, 2-(6-morpholin-4-yl-9H-purin-2-yl)phenol], the concentration for half-maximal inhibition (IC50) at human TOR amounted to 2500 nM.

`c1ccc(Oc2ccccc2-c2nc(N3CCOCC3)c3nc[nH]c3n2)cc1` [Compound 16, 6-morpholin-4-yl-2-(2-phenoxyphenyl)-9H-purine]: the IC50 on PI3 Kinase was found to be 8940 nM.

As for `c1ccc2c(-c3nc(N4CCOCC4)c4nc[nH]c4n3)csc2c1` [Compound 9, 2-(1-benzothien-3-yl)-6-morpholin-4-yl-9H-purine], on PI3 Kinase, the IC50 was 2000 nM.

For the compound `OCc1cccc(-c2nc(N3CCOCC3)c3ncn(C4CCN(Cc5ccccc5)CC4)c3n2)c1` [Compound 51, {3-[9-(1-benzylpiperidin-4-yl)-6-morpholin-4-yl-9H-purin-2-yl]phenyl}methanol], the IC50 at human TOR came to 1000 nM.

For `Oc1cncc(-c2nc(N3CCOCC3)c3ncn(C4CCN(Cc5ccc(Cl)cc5)CC4)c3n2)c1` [Compound 38, 5-{9-[1-(4-chlorobenzyl)piperidin-4-yl]-6-morpholin-4-yl-9H-purin-2-yl}pyridin-3-ol], the half-inhibitory concentration (IC50) on human TOR stood at 160 nM.

For `Oc1cccc(-c2nc(N3CCOCC3)c3ncn(C4CCN(Cc5ccccc5)CC4)c3n2)c1` [Compound 28, 3-(9-(1-benzylpiperidin-4-yl)-6-morpholino-9H-purin-2-yl)phenol], the IC50 at human TOR was 140 nM.

On to `CC(C)c1cccc(-c2nc(N3CCOCC3)c3nc[nH]c3n2)c1` [Compound 12, 2-(3-isopropylphenyl)-6-morpholin-4-yl-9H-purine], for which, on PI3 Kinase, the IC50 was 9920 nM.

As for `N#Cc1cccc(-c2nc(N3CCOCC3)c3nc[nH]c3n2)c1` [Compound 13, 3-(6-morpholin-4-yl-9H-purin-2-yl)benzonitrile], the half-maximal inhibitory concentration (IC50) at PI3 Kinase worked out at 3590 nM.

`Oc1cccc(-c2nc(N3CCOCC3)c3nc[nH]c3n2)c1` [Compound 55, 3-(6-morpholino-9H-purin-2-yl)phenol]: the IC50 at human TOR was 2120 nM.

On to `c1nc2c(N3CCOCC3)nc(-c3ccoc3)nc2[nH]1` [Compound 19, 2-(3-furyl)-6-morpholin-4-yl-9H-purine], for which the IC50 on PI3 Kinase was determined as 4340 nM.

Regarding `CS(=O)(=O)c1ccc(-c2nc(N3CCOCC3)c3nc[nH]c3n2)cc1` [Compound 22, 2-(4-Methanesulfonyl-phenyl)-6-morpholin-4-yl-9H-purine], the IC50 on PI3 Kinase was 2160 nM.

Consider `c1ccc(-c2nc(N3CCOCC3)c3nc[nH]c3n2)cc1` [Compound 54, 4-(2-phenyl-9H-purin-6-yl)morpholine], for which, on human TOR, the concentration for half-maximal inhibition (IC50) was 19000 nM.

Turning to `CN(C)C(=O)c1ccc(-c2nc(N3CCOCC3)c3nc[nH]c3n2)cc1` [Compound 17, N,N-dimethyl-4-(6-morpholin-4-yl-9H-purin-2-yl)benzamide], the IC50 at PI3 Kinase turned out to be 5930 nM.

(Values after patent US20080233127A1, “IMIDAZOLOPYRIMIDINE ANALOGS AND THEIR USE AS PI3 KINASE AND MTOR INHIBITORS” (Wyeth, priority 2007, published 2008).)
